By IC50 is commonly meant the concentration that inhibits the measured activity by half.

The test system of this experiment is ATXN3 pre-mRNA. Description: ATXN3 Quantitative Splicing Assay (qPCR, E4E5 primers/probe, transcripts containing exon 4). Format: cell-based. The following applies: Human neuroblastoma SK-N-MC cells, 24 h treatment, 30 μM to 0.6 nM; read-out: ATXN3 Potency - Splicing E4E5 IC50. As for the experimental part: Human neuroblastoma SK-N-MC cells were plated in 384-well plates at 20,000 cells/well. Twenty-four hours after plating, cells were treated with compounds for 24 h at appropriate concentrations ranging from 30 μM to 0.6 nM (0.3% DMSO). Treated cells were lysed in 15 μL of lysis buffer, and cDNA was synthesized using the Fast Advanced Cells-to-Ct kit. Two μL of each cDNA was used in qPCR reactions to confirm the exon 4 skipped transcripts of ATXN3. A second set of primers/probe E4E5 was used to detect the transcripts containing exon 4. The third set of primers/probe E8E9 was used to detect total gene level of ATXN3. The qPCR reactions were prepared in 384-well plates in 10 μL volume, using TaqMan™ Fast Advanced Master Mix with primers and probes shown in the table below. Reactions were run in a Quant Studio 6 qPCR instrument with default settings.
The primers and probes are listed below in Table 3.
On the technique in general: Real-time PCR tracks product formation cycle by cycle.
`Cc1c(C[C@@H](N)CC2CC2)cc2c(NCc3ccccc3F)nc(Cl)nn12` [Compound 14, (S)-6-(2-amino-3-cyclopropylpropyl)-2-chloro-N-(2-fluorobenzyl)-7-methylpyrrolo[2,1-f][1,2,4]triazin-4-amine]: the half-inhibitory concentration (IC50) is 5 to 10 µM.
As for `C[C@H](F)[C@H](N)Cc1cc2c(NCc3ccc(F)cc3)nc(Cl)nn2c1Cl` [Compound 2, 6-((2R,3S)-2-amino-3-fluorobutyl)-2,7-dichloro-N-(4-fluorobenzyl)pyrrolo[2,1-f][1,2,4]triazin-4-amine], the half-maximal inhibitory concentration (IC50) lay within 0.501 to 5 µM.
In the case of `N[C@H](Cc1cc2c(NCc3ccccc3F)nc(Cl)nn2c1Br)CC1CC1` [Compound 10, (S)-6-(2-amino-3-cyclopropylpropyl)-7-bromo-2-chloro-N-(2-fluorobenzyl)pyrrolo[2,1-f][1,2,4]triazin-4-amine], the IC50 is 0.501 to 5 µM.
In the case of `C[C@H](F)[C@H](N)Cc1cc2c(NCc3ccccc3)nc(Cl)nn2c1Cl` [Compound 6, 6-((2R,3S)-2-amino-3-fluorobutyl)-N-benzyl-2,7-dichloropyrrolo[2,1-f][1,2,4]triazin-4-amine] it was 0.101 to 0.5 µM; in that of `C[C@H](F)[C@H](N)Cc1cc2c(NCc3ccccc3)nc(Cl)nn2c1Br` [Compound 3, 6-((2R,3S)-2-amino-3-fluorobutyl)-N-benzyl-7-bromo-2-chloropyrrolo[2,1-f][1,2,4]triazin-4-amine], 0.101 to 0.5 µM.
In the case of `Cc1c(C[C@@H](N)CC2CC2)cc2c(NCc3ccccc3)nc(Cl)nn12` [Compound 13, (S)-6-(2-amino-3-cyclopropylpropyl)-N-benzyl-2-chloro-7-methylpyrrolo[2,1-f][1,2,4]triazin-4-amine] it was 5 to 10 µM.
In the case of `C[C@H](F)[C@H](N)Cc1cc2c(NCc3ccccc3F)nc(Cl)nn2c1Cl` [Compound 5, 6-((2R,3S)-2-amino-3-fluorobutyl)-2,7-dichloro-N-(2-fluorobenzyl)pyrrolo[2,1-f][1,2,4]triazin-4-amine] it was 0.101 to 0.5 µM.
On to `Cc1c(C[C@@H](N)[C@H](C)F)cc2c(NCc3ccccc3)nc(Cl)nn12` [Compound 7, 6-((2R,3S)-2-amino-3-fluorobutyl)-N-benzyl-2-chloro-7-methylpyrrolo[2,1-f][1,2,4]triazin-4-amine], for which the IC50 is 0.501 to 5 µM.
On to `N[C@H](Cc1cc2c(NCc3ccccc3)nc(Cl)nn2c1Br)CC1CC1` [Compound 9, (S)-6-(2-amino-3-cyclopropylpropyl)-N-benzyl-7-bromo-2-chloropyrrolo[2,1-f][1,2,4]triazin-4-amine], for which the 50% inhibitory concentration (IC50) lay in the range of 0.501 to 5 µM.
`N[C@H](Cc1cc2c(NCc3ccccc3F)nc(Cl)nn2c1Cl)CC1CC1` [Compound 12, (S)-6-(2-amino-3-cyclopropylpropyl)-2,7-dichloro-N-(2-fluorobenzyl)pyrrolo[2,1-f][1,2,4]triazin-4-amine]: the IC50 was in the range of 0.501 to 5 µM.
With `C[C@H](F)[C@H](N)Cc1cc2c(NCc3ccccc3F)nc(Cl)nn2c1Br` [Compound 4, 6-((2R,3S)-2-amino-3-fluorobutyl)-7-bromo-2-chloro-N-(2-fluorobenzyl)pyrrolo[2,1-f][1,2,4]triazin-4-amine], the IC50 is 0.101 to 0.5 µM.
Regarding `N[C@H](Cc1cc2c(NCc3ccccc3)nc(Cl)nn2c1Cl)CC1CC1` [Compound 11, (S)-6-(2-amino-3-cyclopropylpropyl)-N-benzyl-2,7-dichloropyrrolo[2,1-f][1,2,4]triazin-4-amine], the IC50 was in the range of 0.501 to 5 µM.
Regarding `Cc1c(C[C@@H](N)[C@H](C)F)cc2c(NCc3ccccc3F)nc(Cl)nn12` [Compound 8, 6-((2R,3S)-2-amino-3-fluorobutyl)-2-chloro-N-(2-fluorobenzyl)-7-methylpyrrolo[2,1-f][1,2,4]triazin-4-amine], the IC50 is 0.101 to 0.5 µM.
On to `C[C@H](F)[C@H](N)Cc1cc2c(NCc3ccc(F)cc3)nc(Cl)nn2c1Br` [Compound 1, 6-((2R,3S)-2-amino-3-fluorobutyl)-7-bromo-2-chloro-N-(4-fluorobenzyl)pyrrolo[2,1-f][1,2,4]triazin-4-amine], for which the IC50 is 0.501 to 5 µM.

These data come from patent US20260226061A1, “COMPOSITIONS USEFUL FOR MODULATING SPLICING” (Skyhawk Therapeutics, Inc., priority 2023, published 2026).
